Read-outs that look alike come from different tables or passages of the source.
Assays:
[1] = biological target: Beta Secretase enzyme (BACE1) (Homo sapiens, UniProt P56817); assay: In vitro enzymatic BACE FRET assay; type: biochemical; conditions: read-out: BACE1 FRET assay IC50
Summary of the method: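 BACE1 cleavage of a 50 nM fluorophore/quencher peptide FRET substrate ran for one hour in 0.05 M acetate pH 4.2, 10% DMSO, 100 uM genapol. Tris buffer raised pH to neutrality to stop the reaction before fluorescence was read (excitation 488 nm, […]).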

[2] = tested on: Aβ40 in conditioned medium of cells stably expressing Amyloid Precursor Protein (APP); assay: In vitro BACE cell-based assay (HEK cell assay), Aβ40 sandwich ELISA; conditions: Homo sapiens, HEK293
Summary of the method: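 APP-stably expressing cells (40K/well, grown 24 h in DMEM/10% FBS) were treated 24 h with compounds in 10-point dose response starting at 100 μM or 10 μM, 0.1% DMSO final. Secreted Aβ40 was measured by sandwich ELISA (pAb40 capture, biotinylated 6E10 detection, europium time-resolved fluorescence); IC50 from percent inhibition.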

Cathepsin D (Cat D) = biological target: T1, Cathepsin D (Cat D) (Homo sapiens, UniProt P07339); assay: In vitro enzymatic Cathepsin D (Cat D) FRET assay; type: biochemical; conditions: read-out: CatD IC50
T1 construct: Recombinant Cat D was expressed in CHO cells; made in house; host or cells: CHO cells
T1 sequence (P07339 65-412, species assumed): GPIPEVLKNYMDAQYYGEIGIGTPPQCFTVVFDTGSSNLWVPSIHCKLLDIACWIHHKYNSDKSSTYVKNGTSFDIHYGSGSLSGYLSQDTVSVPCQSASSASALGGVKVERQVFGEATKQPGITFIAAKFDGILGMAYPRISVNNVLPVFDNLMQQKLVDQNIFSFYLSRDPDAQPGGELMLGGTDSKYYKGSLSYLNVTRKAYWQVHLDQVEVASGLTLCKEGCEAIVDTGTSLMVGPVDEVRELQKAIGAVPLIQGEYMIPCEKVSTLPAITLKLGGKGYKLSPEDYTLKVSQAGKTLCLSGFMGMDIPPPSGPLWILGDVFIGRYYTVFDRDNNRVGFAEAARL
Summary of the method: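 Recombinant Cat D expressed in CHO cells, used at 9 nM and pre-incubated one hour with serially diluted inhibitor in DMSO. Peptide substrate carries a fluorophore and quencher flanking the cleavage site; reaction stopped with Tris buffer raising pH to neutrality, then fluorescence read.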

Chain of Beta Secretase enzyme (BACE1) (P56817 46-501): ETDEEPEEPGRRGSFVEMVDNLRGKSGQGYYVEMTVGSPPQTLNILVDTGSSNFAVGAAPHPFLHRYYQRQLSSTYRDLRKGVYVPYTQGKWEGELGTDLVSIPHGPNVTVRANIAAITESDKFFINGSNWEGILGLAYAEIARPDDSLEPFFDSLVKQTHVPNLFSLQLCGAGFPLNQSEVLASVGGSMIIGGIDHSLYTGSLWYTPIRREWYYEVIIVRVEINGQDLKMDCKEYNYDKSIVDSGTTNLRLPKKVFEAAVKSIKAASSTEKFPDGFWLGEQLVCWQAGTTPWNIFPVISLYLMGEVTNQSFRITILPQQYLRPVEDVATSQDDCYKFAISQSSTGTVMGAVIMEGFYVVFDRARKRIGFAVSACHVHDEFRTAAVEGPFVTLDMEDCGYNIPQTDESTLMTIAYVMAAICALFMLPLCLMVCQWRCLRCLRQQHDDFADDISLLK

| IC50 (Cathepsin D (Cat D)) [µM] | IC50 ([1]; average IC50, enzyme assay) [µM] | IC50 ([2]; average IC50, cell assay) [µM] | SMILES | IC50 [1] [µM] | IC50 [2] [µM] |
| --- | --- | --- | --- | --- | --- |
| 69.7 | – | – | NC1=N[C@](CF)(c2cc(N)ccc2F)CS(=O)(=O)C12CCC2 [Example 417, (7S)-7-(5-amino-2-fluorophenyl)-7-(fluoromethyl)-5-thia-8-azaspiro[3.5]non-8-en-9-amine 5,5-dioxide] | 2.1 | 3.65 |
| 631 | 0.00451 | 0.026 | CC1(C)C(N)=N[C@](C)(c2cc(Nc3nccc4cc(OCC(F)(F)F)cnc34)ccc2F)CS1(=O)=O [Example 419, N-(3-((3R)-5-amino-3,6,6-trimethyl-1,1-dioxido-3,6-dihydro-2H-1,4-thiazin-3-yl)-4-fluorophenyl)-3-(2,2,2-trifluoroethoxy)-1,7-naphthyridin-8-amine] | – | – |
| 1260 | 0.00485 | 0.0054 | CC1(C)C(N)=N[C@](C)(c2cc(Nc3nccc4cc(OCC#N)cnc34)ccc2F)CS1(=O)=O [Example 420, ((8-((3-((3R)-5-amino-3,6,6-trimethyl-1,1-dioxido-3,6-dihydro-2H-1,4-thiazin-3-yl)-4-fluorophenyl)amino)-1,7-naphthyridin-3-yl)oxy)acetonitrile] | – | – |
| 1450 | 0.031 | 0.0115 | CC1(C)C(N)=N[C@](C)(c2cc(Nc3nccc4cc(OCCF)cnc34)ccc2F)CS1(=O)=O [Example 421, N-(3-((3R)-5-amino-3,6,6-trimethyl-1,1-dioxido-3,6-dihydro-2H-1,4-thiazin-3-yl)-4-fluorophenyl)-3-(2-fluoroethoxy)-1,7-naphthyridin-8-amine] | – | – |
| 958 | 0.0184 | 0.029 | CCOc1cnc2c(Nc3ccc(F)c([C@]4(C)CS(=O)(=O)C(C)(C)C(N)=N4)c3)nccc2c1 [Example 422, N-(3-((3R)-5-amino-3,6,6-trimethyl-1,1-dioxido-3,6-dihydro-2H-1,4-thiazin-3-yl)-4-fluorophenyl)-3-ethoxy-1,7-naphthyridin-8-amine] | – | – |
| > 133 | 0.0013 | 0.735 | C[C@]1(F)C(N)=N[C@](C)(c2cc(Nc3nccc4nc(C(F)(F)F)cnc34)ccc2F)CS1(=O)=O [Example 423, N-(3-((3R,6R)-5-amino-6-fluoro-3,6-dimethyl-1,1-dioxido-3,6-dihydro-2H-1,4-thiazin-3-yl)-4-fluorophenyl)-2-(trifluoromethyl)pyrido[3,4-b]pyrazin-5-amine] | – | – |
| 567 | 0.298 | 0.131 | COc1ncc(NC(=O)c2ccccn2)cc1[C@]1(C)CS(=O)(=O)C(C)(C)C(N)=N1 [Example 424, N-(5-((3R)-5-amino-3,6,6-trimethyl-1,1-dioxido-3,6-dihydro-2H-1,4-thiazin-3-yl)-6-methoxy-3-pyridinyl)-2-pyridinecarboxamide] | – | – |
| 476 | 0.0012 | 0.1 | CC1(C)C(N)=N[C@](CF)(c2cc(Nc3ncc(F)c4cc(OCC5CC5)cnc34)ccc2F)CS1(=O)=O [Example 431, N-(3-((3S)-5-amino-3-(fluoromethyl)-6,6-dimethyl-1,1-dioxido-3,6-dihydro-2H-1,4-thiazin-3-yl)-4-fluorophenyl)-3-(cyclopropylmethoxy)-5-fluoro-1,7-naphthyridin-8-amine] | – | – |
| 312 | 0.00247 | 0.187 | CC1(C)C(N)=N[C@](CF)(c2cc(Nc3ncc(F)c4cc(OCC(F)(F)F)cnc34)ccc2F)CS1(=O)=O [Example 432, N-(3-((3S)-5-amino-3-(fluoromethyl)-6,6-dimethyl-1,1-dioxido-3,6-dihydro-2H-1,4-thiazin-3-yl)-4-fluorophenyl)-5-fluoro-3-(2,2,2-trifluoroethoxy)-1,7-naphthyridin-8-amine] | – | – |
| 111 | 0.0006 | 0.0314 | CC1(C)C(N)=N[C@](CF)(c2cc(Nc3ncc(F)c4cc(O)cnc34)ccc2F)CS1(=O)=O [Example 433, 8-((3-((3S)-5-amino-3-(fluoromethyl)-6,6-dimethyl-1,1-dioxido-3,6-dihydro-2H-1,4-thiazin-3-yl)-4-fluorophenyl)amino)-5-fluoro-1,7-naphthyridin-3-ol] | – | – |
| 32.3 | 0.0015 | 0.341 | CC1(C)C(N)=N[C@](CF)(c2cc(Nc3ncc(F)c4cc(OCC5CCC5)cnc34)ccc2F)CS1(=O)=O [Example 434, N-(3-((3S)-5-amino-3-(fluoromethyl)-6,6-dimethyl-1,1-dioxido-3,6-dihydro-2H-1,4-thiazin-3-yl)-4-fluorophenyl)-3-(cyclobutylmethoxy)-5-fluoro-1,7-naphthyridin-8-amine] | – | – |
| > 400 | 0.0016 | 0.049 | CCOc1cnc2c(Nc3ccc(F)c([C@]4(CF)CS(=O)(=O)C(C)(C)C(N)=N4)c3)ncc(F)c2c1 [Example 435, N-(3-((3S)-5-amino-3-(fluoromethyl)-6,6-dimethyl-1,1-dioxido-3,6-dihydro-2H-1,4-thiazin-3-yl)-4-fluorophenyl)-3-ethoxy-5-fluoro-1,7-naphthyridin-8-amine] | – | – |
| 61.6 | 0.0043 | 0.626 | CC(C)COc1cnc2c(Nc3ccc(F)c([C@]4(CF)CS(=O)(=O)C(C)(C)C(N)=N4)c3)ncc(F)c2c1 [Example 436, N-(3-((3S)-5-amino-3-(fluoromethyl)-6,6-dimethyl-1,1-dioxido-3,6-dihydro-2H-1,4-thiazin-3-yl)-4-fluorophenyl)-5-fluoro-3-(2-methylpropoxy)-1,7-naphthyridin-8-amine] | – | – |
| > 1.65 | 0.00223 | 0.0643 | CC1(C)C(N)=N[C@](CF)(c2cc(Nc3ncc(F)c4cc(OCC(F)F)cnc34)ccc2F)CS1(=O)=O [Example 437, N-(3-((3S)-5-amino-3-(fluoromethyl)-6,6-dimethyl-1,1-dioxido-3,6-dihydro-2H-1,4-thiazin-3-yl)-4-fluorophenyl)-3-(2,2-difluoroethoxy)-5-fluoro-1,7-naphthyridin-8-amine] | – | – |
| > 1.65 | 0.00382 | 0.198 | CCOc1cnc2c(Nc3ccc(F)c([C@]4(CF)CS(=O)(=O)C5(CCC5)C(N)=N4)c3)ncc(F)c2c1 [Example 438, N-(3-((7S)-9-amino-7-(fluoromethyl)-5,5-dioxido-5-thia-8-azaspiro[3.5]non-8-en-7-yl)-4-fluorophenyl)-3-ethoxy-5-fluoro-1,7-naphthyridin-8-amine] | – | – |
| 215 | 0.375 | 0.99 | CC1(C)C(N)=N[C@](C)(c2cc(Sc3ncccc3F)ccc2F)CS1(=O)=O [Example 439, (5R)-5-(2-fluoro-5-((3-fluoro-2-pyridinyl)sulfanyl)phenyl)-2,2,5-trimethyl-5,6-dihydro-2H-1,4-thiazin-3-amine 1,1-dioxide] | – | – |
| 218 | 0.566 | 0.679 | CC1(C)C(N)=N[C@](C)(c2cc(Sc3cc(C#N)ccn3)ccc2F)CS1(=O)=O [Example 440, 2-((3-((3R)-5-amino-3,6,6-trimethyl-1,1-dioxido-3,6-dihydro-2H-1,4-thiazin-3-yl)-4-fluorophenyl)sulfanyl)-4-pyridinecarbonitrile] | – | – |
| 407 | 0.00534 | 0.0138 | CC1(C)C(N)=N[C@](C)(c2cc(Nc3nccc4nc(OCCF)cnc34)ccc2F)CS1(=O)=O [Example 441, N-(3-((3R)-5-amino-3,6,6-trimethyl-1,1-dioxido-3,6-dihydro-2H-1,4-thiazin-3-yl)-4-fluorophenyl)-2-(2-fluoroethoxy)pyrido[3,4-b]pyrazin-5-amine] | – | – |
| 389 | 0.00322 | 0.0319 | CC1(C)C(N)=N[C@](C)(c2cc(Nc3nccc4nc(OCC(F)(F)F)cnc34)ccc2F)CS1(=O)=O [Example 442, N-(3-((3R)-5-amino-3,6,6-trimethyl-1,1-dioxido-3,6-dihydro-2H-1,4-thiazin-3-yl)-4-fluorophenyl)-2-(2,2,2-trifluoroethoxy)pyrido[3,4-b]pyrazin-5-amine] | – | – |
| 346 | 0.00287 | 0.004 | CC1(C)C(N)=N[C@](C)(c2cc(Nc3nccc4nc(OCC#N)cnc34)ccc2F)CS1(=O)=O [Example 443, ((5-((3-((3R)-5-amino-3,6,6-trimethyl-1,1-dioxido-3,6-dihydro-2H-1,4-thiazin-3-yl)-4-fluorophenyl)amino)pyrido[3,4-b]pyrazin-2-yl)oxy)acetonitrile] | – | – |

| SMILES | IC50 (Cathepsin D (Cat D)) [µM] | IC50 ([1]; average IC50, enzyme assay) [µM] | IC50 ([2]; average IC50, cell assay) [µM] | IC50 [1] [µM] | IC50 [2] [µM] |
| --- | --- | --- | --- | --- | --- |
| C[C@@]1(c2cc(NC(=O)c3ccc(Cl)cn3)ccc2F)CS(=O)(=O)C2(CCC2)C(N)=N1 [Example 416, N-(3-((7R)-9-amino-7-methyl-5,5-dioxido-5-thia-8-azaspiro[3.5]non-8-en-7-yl)-4-fluorophenyl)-5-chloro-2-pyridinecarboxamide] | 59.5 | – | – | 0.00236 | 0.0059 |
| NC1=N[C@@](CF)(c2cc(Br)ccc2F)CS(=O)(=O)C12CCC2 [Example 418, (7R)-7-(5-bromo-2-fluorophenyl)-7-(fluoromethyl)-5-thia-8-azaspiro[3.5]non-8-en-9-amine 5,5-dioxide] | > 400 | > 40 | > 15.6 | – | – |
